Consider one molecule from patent US20260263429A1, “INHIBITORS OF CA 2+/CALMODULIN-DEPENDENT PROTEIN KINASE II (CAMKII) THAT DO NOT INHIBIT LONG-TERM POTENTIATION (LTP) INDUCTION AND THERAPEUTIC USES THEREOF” (The Regents of the University of Colorado, A Body Corporate, priority 2023, published 2026).

For assay [1], the target named is CaMKII F89G binding to GluN2B (Homo sapiens, UniProt Q9UQM7, F89G). The experiment in a line: In vitro binding of CaMKII F89G to GluN2B. Particulars: NM-PP1. From the text: This conclusion also predicts that the LTP stimulus-induced movement of CaMKII to excitatory synapses should be (i) impaired in the CaMKII F89G mutant; but (ii) normalized by pharmacogenetic rescue with NM-PP1. Indeed, both predictions were observed experimentally (FIGS. 4D-4E).
CaMKII binding to GluN2B in vitro. CaMKII/GluN2B binding assays were done as described. Briefly, GST-GluN2B-c-tail (GST-2BC) was immobilized on anti-GST-antibody-coated microtiter plates (Thermo Scientific), blocked for 30 min with 5% BSA, and then overlaid with […] CaMKII (subunit concentration) in PIPES-buffered saline (pH 7.2) containing: 2 mM Ca^2+, 1 μM CaM, 1 mM Mg^2+, 0.1% BSA, 0.1% Tween-20 for 20 min at room temperature. Addition of 1 mM ADP, 1 mM ATP, 10 μM AS283 (or AS105) or […] NM-PP1 was added accordingly (see figure legends). After extensive washes in buffer containing 1 mM EGTA, GST-2BC and bound CaMKII was eluted for 10 min in SDS-loading buffer at 95° C. Bound CaMKII was measured via immunoblot.

For assay [2], the system named is LTP in CaMKIIα knockout slices. Nature of the assay: LTP induction in slices of CaMKIIα knockout mice injected with AAV-mScarlet (mock) or AAV-mScarlet-CaMKII F89G. The class given is cell-based, mouse. Here is the method: Specifically, in one exemplary method, pharmacogenetic rescue of LTP with NM-PP1 was tested in hippocampal slices expressing the CaMKII F89G mutant. For this purpose, mScarlet-labeled CaMKII F89G mutant were re-expressed in the hippocampal CA1 region of CaMKIIα knockout mice. This was done by stereotactic injection of a packaged adeno-associated virus (AAV) construct in which the expression of either mScarlet alone or the mScarlet-labeled mutant CaMKII is controlled by the CaMKIIα promoter (FIG. 5A). After 5 weeks of expression, acute slices were prepared and evaluated for proper localization of expression by imaging of mScarlet fluorescence (FIG. 5A and FIG. 11A). […] As expected, NM-PP1 had no effect on the residual LTP in these control slices (FIGS. 5B-5C and FIG. 11B). By contrast, in slices expressing the CaMKII F89G mutant, LTP was completely abolished (FIGS. 5D-5E), consistent with residual LTP being further suppressed by the dominant negative effect (on the remaining minor CaMKIIβ isoform in the CaMKIIα knockout) that is exerted by a CaMKII mutant with impaired ATP-binding and thereby is deficient in both activity and GluN2B binding. […] Thus, two independent lines of pharmacogenetic evidence topple current dogma by directly supporting the conclusion that LTP induction is linked to structural rather than enzymatic functions of CaMKII.
AAV Production. […]

Chain of CaMKII F89G binding to GluN2B (Q9UQM7 whole entry F89G): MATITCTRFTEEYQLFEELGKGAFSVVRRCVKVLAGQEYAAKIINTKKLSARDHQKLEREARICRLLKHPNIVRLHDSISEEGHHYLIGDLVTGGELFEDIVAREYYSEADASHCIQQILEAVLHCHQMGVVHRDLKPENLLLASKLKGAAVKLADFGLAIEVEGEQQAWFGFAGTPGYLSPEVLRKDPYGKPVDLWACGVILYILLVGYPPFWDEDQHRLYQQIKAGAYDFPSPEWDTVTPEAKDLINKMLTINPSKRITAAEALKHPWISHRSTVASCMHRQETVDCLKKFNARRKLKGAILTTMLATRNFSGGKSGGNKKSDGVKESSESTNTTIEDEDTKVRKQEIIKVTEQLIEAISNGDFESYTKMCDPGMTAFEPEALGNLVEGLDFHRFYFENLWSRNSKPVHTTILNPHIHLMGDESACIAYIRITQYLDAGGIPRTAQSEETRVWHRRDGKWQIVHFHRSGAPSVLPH
Chain of CaMKII F89G binding to GluN2B (Q13224 836-1484 partner limits assumed): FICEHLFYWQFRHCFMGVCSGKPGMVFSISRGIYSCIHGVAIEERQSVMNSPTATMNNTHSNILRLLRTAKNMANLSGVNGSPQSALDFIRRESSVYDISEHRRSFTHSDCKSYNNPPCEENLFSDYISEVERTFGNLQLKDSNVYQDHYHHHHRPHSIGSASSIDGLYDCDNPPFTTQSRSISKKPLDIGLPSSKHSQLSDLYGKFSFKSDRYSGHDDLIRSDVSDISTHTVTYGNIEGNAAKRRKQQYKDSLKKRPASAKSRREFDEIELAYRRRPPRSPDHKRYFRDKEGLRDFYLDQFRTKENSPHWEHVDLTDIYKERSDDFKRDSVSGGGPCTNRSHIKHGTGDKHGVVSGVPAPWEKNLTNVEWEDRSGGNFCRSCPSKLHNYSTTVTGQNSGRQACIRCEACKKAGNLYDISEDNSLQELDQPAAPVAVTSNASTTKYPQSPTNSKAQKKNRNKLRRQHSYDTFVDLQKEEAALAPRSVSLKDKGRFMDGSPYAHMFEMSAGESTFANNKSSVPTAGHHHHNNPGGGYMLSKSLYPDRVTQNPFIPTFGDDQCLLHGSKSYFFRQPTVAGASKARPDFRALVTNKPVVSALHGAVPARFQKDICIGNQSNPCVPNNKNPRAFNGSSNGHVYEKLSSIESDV

Turning to `CC(C)(C)n1nc(Cc2cccc3ccccc23)c2c(N)ncnc21` [NM-PP1], in assay [1], the “binding of CaMKII F89G to GluN2B in vitro” value is recorded as “enabled binding of CaMKII F89G to GluN2B also in vitro”. The “residual LTP in CaMKIIα knockout slices expressing mScarlet control” value in assay [2] (NM-PP1) is listed as “no effect”. The “LTP induction in CaMKIIα knockout slices expressing CaMKII F89G” value in assay [2] (NM-PP1 10 μM) is on record as “LTP induction was enabled”.
